Results reported in article PMC4704819, “Honey Bee Allatostatins Target Galanin/Somatostatin-Like Receptors and Modulate Learning: A Conserved Function?” (PLoS ONE, 2016).
“Also recorded” adds a separate entry of the source. Where a SMILES comes first, the peptide text is derived from it. Bridges are numbered along the chain shown (N, C = ends).

Target: T1, Apime-ASTC-R (Apis mellifera, UniProt A0A7M7GNE5)
T1 sequence (A0A7M7GNE5 1-423): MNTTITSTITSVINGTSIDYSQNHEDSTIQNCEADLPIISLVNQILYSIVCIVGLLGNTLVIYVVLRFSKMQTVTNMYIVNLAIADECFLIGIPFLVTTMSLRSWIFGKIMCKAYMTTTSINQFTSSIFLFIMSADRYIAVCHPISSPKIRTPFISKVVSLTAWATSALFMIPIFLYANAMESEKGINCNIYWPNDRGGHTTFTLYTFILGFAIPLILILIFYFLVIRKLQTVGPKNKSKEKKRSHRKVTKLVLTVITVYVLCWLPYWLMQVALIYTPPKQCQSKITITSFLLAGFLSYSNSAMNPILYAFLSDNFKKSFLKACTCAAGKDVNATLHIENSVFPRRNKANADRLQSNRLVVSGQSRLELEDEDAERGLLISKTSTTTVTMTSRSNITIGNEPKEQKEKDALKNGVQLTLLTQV
Assay: Intracellular cAMP reporter assay, HEK293 cells expressing Apime-ASTC-R
Type: cell-based
Settings: CRE-luciferase, IBMX, 10^-14 to 10^-3 M, Fig 5D-E, ASTCC effect at high concentrations (>10 μM)
Experimental: For intracellular cAMP measurements, cells were bathed in trypsin EDTA and collected, then suspended in fresh DMEM. Transfections with pRK5-ApimeAstC-R, pRK5-ApimeAstA-R or empty pRK5 vector were carried out in 15 ml Falcon tubes. Transfection medium for HEK293 cells was prepared using the Lipofectamine LTX kit (Invitrogen) with 2.5 ml Opti-MEM® (Gibco), 12.5 μl Plus™ Reagent and 4 μg of ApimeASTC-R (or ApimeASTA-R, or empty) expression construct, and 2 μg of CRE(6x)-Luc plasmid. The luciferase ORF, downstream of six tandem repeats of a cyclic AMP responsive element (CRE), in front of a minimum collate promoter, was used as a reporter gene (this reporter plasmid has been used by others)
We followed a previousy published protocol: HEK293 cells in Dulbecco's Modified Eagles Medium nutrient mixture F12-Ham (DMEM/F12, Sigma–Aldrich) supplemented with 10% heat-inactivated fetal bovine serum (Gibco), 100 IU/ml penicillin, 100 μg/ml streptomycin (Gibco) were maintained in an incubator at 37°C with constant supply of 5% CO2, until they reached 60–80% confluence. Cells were then bathed in trypsin EDTA (Gibco) until rounded. The flask was then tapped to loosen the cells, which were subsequently washed off with 5 ml DMEM/F12. The cells were gently centrifuged at 800 rpm for 5 minutes and carefully suspended in fresh DMEM, which was divided in two for transfection with receptor constructs or empty vectors. After 5 min at room temperature, 30 μl LTX was added. After an incubation period of 30 min at room temperature, the DNA/LTX mix was added to the cells. The cells were then aliquoted (100 μl per well) into a clear bottom 96-well plate (Greiner bio-one #655090) and incubated overnight (37°C, 5% CO2).
Prior to measuring cAMP, the cell medium was removed by carefully inverting the 96-well plate on filter paper and quickly replaced with 100 μl of DMEM/F12 without phenol red (Invitrogen), but containing 200 μM 3-isobutyl-1-methylxanthine (IBMX, Sigma–Aldrich) to prevent cAMP breakdown, as well as drugs to be tested. In each experiment, some wells were used to measure basal levels of cAMP in the cells (negative control), while others were used to measure cAMP levels in cells exposed to 10 μM forskolin analogue (NKH-477, Sigma Aldrich, positive control). […] All cells were incubated at 37°C and 5% CO2 for 3–4 h to allow transcription of the reporter gene before 100 μl of freshly reconstituted Steadylite Plus™ substrate (PerkinElmer) was added to each well. The 96-well plate was then placed in the dark for 15 min before light emission resulting from luciferase enzymatic activity was recorded. Measurements lasting 0.2 s/well were taken every 55 s for 10 cycles using a FLUOstar Omega microplate reader (BMG Labtech). Results were analyzed by means of the Omega software packages and further processed by Excel and GraphPad Prism softwares. In order to facilitate comparisons across experiments, bioluminescence levels are expressed relative to those in mock-transfected cells (transfected with the vector devoid of the receptor sequence) untreated with NKH-477, which were arbitrarily set at 100.
To test this prediction, we expressed the two receptors separately in HEK293 cells together with the luciferase reporter gene, downstream of the cAMP response element, CRE, but without exogenous G proteins.

SMILES	effect on cAMP levels (bioluminescence), in words	effect on cAMP levels (bioluminescence), in words (listed as ASTCC)	effect on cAMP levels (bioluminescence), in words (listed as ASTC)
CC(C)[C@@H]1NC(=O)[C@H](C)NC(=O)[C@H](CC(N)=O)NC(=O)[C@H](Cc2ccccc2)NC(=O)[C@H](Cc2ccc(O)cc2)NC(=O)[C@@H](NC(=O)[C@H](CCCNC(=N)N)NC(=O)[C@H](Cc2c[nH]c3ccccc23)NC(=O)[C@H](Cc2ccc(O)cc2)NC(=O)[C@@H](NC(=O)[C@H](CCCNC(=N)N)NC(=O)CNC(=O)[C@H](CCCCN)NC(=O)[C@H](C)NC(=O)[C@H](CCC(N)=O)NC(=O)CN)C(C)C)CSSC[C@@H](C(=O)N[C@@H](Cc2ccccc2)C(=O)O)NC(=O)[C@H]([C@@H](C)O)NC1=O [Apime-ASTCC] (H-GQAKGRVYWRCYFNAVTCF-OH; disulfide 11-18; N-terminus assumed)	increased bioluminescence levels at high concentrations; also recorded: small increase in intracellular cAMP	increased cAMP levels in the cells slightly	–
CC(C)[C@@H]1NC(=O)[C@H](C)NC(=O)[C@H](CC(N)=O)NC(=O)[C@H](Cc2ccccc2)NC(=O)[C@H](C)NC(=O)[C@@H](NC(=O)[C@H](CCC(N)=O)NC(=O)[C@H](CCCCN)NC(=O)[C@H](Cc2c[nH]c3ccccc23)NC(=O)[C@H](Cc2ccc(O)cc2)NC(=O)[C@@H](N)CO)CSSC[C@@H](C(=O)N[C@@H](Cc2ccccc2)C(N)=O)NC(=O)[C@H](CO)NC1=O [Apime-ASTC] (H-SYWKQCAFNAVSCF-NH2; disulfide 6-13; N-terminus assumed)	did not change the bioluminescence levels	–	failed to increase intracellular cAMP levels
